This test has as its target T1, human vitronectin receptor αvβ3 (Homo sapiens, UniProt P05106+P06756).
T1 construct: Human vitronectin receptor was obtained from the human placenta according to the method of Pytela et al; from tissue; host or cells: human placenta
Nature of the test: Kistrin binding assay (αvβ3 ELISA test, K/VnR). The source says: The inhibition of the binding of kistrin to human vitronectin receptor (VnR) described below is a test method by which the antagonistic action of the compounds of the invention on the vitronectin receptor αvβ3 can be determined (αvβ3 ELISA Test; the test method is abbreviated as “K/VnR” in the listing of the test results).
Kistrin was purified according to the methods of Dennis et al., as described in Proc. Natl. Acad. Sci. USA 87 (1989) 2471 and Proteins: Structure, Function and Genetics 15 (1993)312.
Purification of Human vitronectin Receptor (αvβ3)
Human vitronectin receptor was obtained from the human placenta according to the method of Pytela et al., Methods Enzymol. 144 (1987) 475. Human vitronectin receptor αvβ3 can also be obtained from some cell lines (for example from 293 cells, a human embryonic kidney cell line) which are co-transfected with DNA sequences for both subunits αv and β3 of the vitronectin receptor. The subunits are extracted with octyl glycoside and then chromatographed through concanavalin A, heparin-Sepharose and S-300.
Murine monoclonal antibodies which are specific for the β3 subunits of the vitronectin receptor, were prepared according to the method of Newman et al., Blood, 1985, 227, or by a similar process. The rabbit Fab 2 anti-mouse Fc conjugate to horseradish peroxidase (anti-mouse Fc HRP) was obtained from Pel Freeze (Catalog No. 715 305-1).
The ability of substances to inhibit the binding of kistrin to the vitronectin receptor can be determined using an ELISA test. For this purpose, Nunc 96-well microtiter plates were coated with a solution of kistrin (0.002 mg/ml) according to the method of Dennis et al., as described in Proteins: Structure, Function and Genetics 15 (1993) 312. The plates were then washed twice with PBS/0.05% Tween-20 and blocked by incubating (60 min) with bovine serum albumin (BSA, 0.5%, RIA grade or better) in buffer solution (Tris-HCl (50 mM), NaCl (100 mM), MgCl2 (1 mM), CaCl2 (1 mM), MnCl2 (1 mM), pH 7). Solutions of known inhibitors and of the test substances were prepared in concentrations from 2×10^−12 to 2×10^−6 mol/l in assay buffer (BSA (0.5%, RIA grade or better); Tris-HCl (50 mM), NaCl (100 mM), MgCl2 (1 mM), CaCl2 (1 mM), MnCl2 (1 mM), pH 7). The blocked plates were emptied, and in each case 0.025 ml of this solution which contains a defined concentration (2×10^−12 to 2×10^−6 mol/l) either of a known inhibitor or of a test substance, were added to each well. 0.025 ml of a solution of the vitronectin receptor in assay buffer (0.03 mg/ml) was pipetted into each well of the plate and the plate was incubated at room temperature for 60-180 min on a shaker. In the meantime, a solution (6 ml/plate) of a murine monoclonal antibody specific for the […] of the vitronectin receptor was prepared in assay buffer (0.0015 mg/ml). A second rabbit antibody (0.001 ml of stock solution/6 ml of the murine monoclonal anti-β3 antibody solution) which is an anti-mouse Fc HRP antibody conjugate was added to this solution, and this mixture of murine anti-β3 antibody and rabbit anti-mouse Fc HRP antibody conjugate was incubated during the time of the receptor-inhibitor incubation. The test plates were washed four times with PBS solution which contains 0.05% Tween-20, and in each case 0.05 ml/well of the antibody mixture was pipefted into each well of the plate and incubated for 60-180 min. The plate was washed four times with PBS/0.05% Tween-20 and then developed with 0.05 ml/well of a PBS solution which contained 0.67 mg/ml of ophenylenediamine and 0.012% of H2O2. Alternatively to this, o-phenylenediamine can be employed in a buffer (pH 5) which contains Na3PO4 and citric acid. The color development was stopped using 1 N H2SO4 (0.05 ml/well). The absorption for each well was measured at 492-405 nm and the data are evaluated by standard methods.
Background: In an ELISA, binding on a coated surface is turned into a signal by an enzyme label.

[1] abbreviates: inhibition of the binding of kistrin to human vitronectin receptor (VnR), ELISA, read-out: K/VnR IC50.

The text below walks through data of patent publication US7259159B2, “Guanidino derivatives as inhibitors of cell adhesion” (Sanofi-Aventis Deutschland GmbH, priority 2000, dated 2007).

Where two headings read alike, the source gives them in different places.

T1 sequence (P06756 31-889 limits assumed): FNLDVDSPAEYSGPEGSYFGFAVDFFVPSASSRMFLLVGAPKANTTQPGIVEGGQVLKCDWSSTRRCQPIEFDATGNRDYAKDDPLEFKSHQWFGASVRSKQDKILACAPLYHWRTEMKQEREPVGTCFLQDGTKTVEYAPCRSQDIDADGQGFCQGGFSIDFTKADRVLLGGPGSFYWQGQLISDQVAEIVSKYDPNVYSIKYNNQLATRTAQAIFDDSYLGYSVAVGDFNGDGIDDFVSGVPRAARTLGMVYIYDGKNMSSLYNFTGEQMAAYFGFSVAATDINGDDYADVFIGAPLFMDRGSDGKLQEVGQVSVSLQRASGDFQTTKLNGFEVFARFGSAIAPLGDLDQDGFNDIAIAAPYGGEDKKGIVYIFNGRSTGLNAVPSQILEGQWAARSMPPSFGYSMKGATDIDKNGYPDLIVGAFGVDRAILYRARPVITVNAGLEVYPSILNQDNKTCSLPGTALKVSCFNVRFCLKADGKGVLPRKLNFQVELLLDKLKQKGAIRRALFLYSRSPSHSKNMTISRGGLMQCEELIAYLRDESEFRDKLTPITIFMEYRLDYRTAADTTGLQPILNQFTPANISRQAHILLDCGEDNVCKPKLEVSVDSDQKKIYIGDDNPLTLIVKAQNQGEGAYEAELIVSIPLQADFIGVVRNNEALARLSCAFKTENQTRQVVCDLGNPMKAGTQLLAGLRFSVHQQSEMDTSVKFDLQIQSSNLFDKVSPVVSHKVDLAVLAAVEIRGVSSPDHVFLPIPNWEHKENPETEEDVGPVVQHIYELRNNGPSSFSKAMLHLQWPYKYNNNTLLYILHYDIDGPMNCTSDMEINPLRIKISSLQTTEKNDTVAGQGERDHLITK
T1 sequence (P06756 891-1048 partner limits assumed): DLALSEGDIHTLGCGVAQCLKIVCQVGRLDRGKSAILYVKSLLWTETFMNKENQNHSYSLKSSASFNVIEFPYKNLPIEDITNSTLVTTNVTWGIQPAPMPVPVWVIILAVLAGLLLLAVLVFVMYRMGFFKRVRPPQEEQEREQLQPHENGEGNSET
T1 sequence (P05106 27-788): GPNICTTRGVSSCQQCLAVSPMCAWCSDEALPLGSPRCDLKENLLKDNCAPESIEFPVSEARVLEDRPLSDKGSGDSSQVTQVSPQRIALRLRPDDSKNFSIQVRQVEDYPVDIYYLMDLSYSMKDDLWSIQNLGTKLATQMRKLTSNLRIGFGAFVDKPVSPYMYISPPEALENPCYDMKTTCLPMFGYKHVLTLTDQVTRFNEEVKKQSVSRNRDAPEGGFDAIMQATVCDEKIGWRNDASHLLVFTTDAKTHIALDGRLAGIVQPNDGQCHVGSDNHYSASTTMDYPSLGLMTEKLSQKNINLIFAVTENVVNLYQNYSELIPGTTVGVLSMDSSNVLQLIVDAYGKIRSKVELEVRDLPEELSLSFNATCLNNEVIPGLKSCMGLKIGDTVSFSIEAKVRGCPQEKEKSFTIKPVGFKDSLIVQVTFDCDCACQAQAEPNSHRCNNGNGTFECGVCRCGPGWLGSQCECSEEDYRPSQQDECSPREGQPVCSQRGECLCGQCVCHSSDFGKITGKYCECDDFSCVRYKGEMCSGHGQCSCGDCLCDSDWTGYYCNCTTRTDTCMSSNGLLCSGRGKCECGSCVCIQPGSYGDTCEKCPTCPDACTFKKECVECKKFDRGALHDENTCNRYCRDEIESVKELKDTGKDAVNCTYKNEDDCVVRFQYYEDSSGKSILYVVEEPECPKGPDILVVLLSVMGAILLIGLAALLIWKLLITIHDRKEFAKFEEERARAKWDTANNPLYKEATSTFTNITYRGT

`Cc1nc(SC[C@H](NS(=O)(=O)c2cccc3ccccc23)C(=O)O)c2ccn(CCCC(=O)NC3=NCCCN3)c2n1` [Example 7, (2R)-3-{2-Methyl-7-[3-(1,4,5,6-tetrahydro-pyrimidin-2-ylcarbamoyl)-propyl]-7H-pyrrolo[2,3-d]pyrimidin-4-ylsulfanyl}-2-(naphthalene-1-sulfonylamino)-propionic acid]: under setting [1], the IC50 was 5 nM.

Regarding `Cc1nc(SC[C@H](NS(=O)(=O)c2ccccc2)C(=O)O)c2ccn(CCCC(=O)NC3=NCCCN3)c2n1` [Example 8, (2R)-3-{2-Methyl-7-[3-(1,4,5,6-tetrahydro-pyrimidin-2-ylcarbamoyl)-propyl]-7H-pyrrolo[2,3-d]pyrimidin-4-ylsulfanyl}-2-(benzenesulfonylamino)-propionic acid], under setting [1], the IC50 came to 10 nM. The molecule `Cc1nc(NC[C@H](NS(=O)(=O)c2cccc3ccccc23)C(=O)O)c2ccn(CCCC(=O)NC3=NCCCN3)c2n1` [Example 3, (2S)-3-{2-Methyl-7-[3-(1,4,5,6-tetrahydro-pyrimidin-2-ylcarbamoyl)-propyl]-7H-pyrrolo[2,3-d]pyrimidin-4-ylamino}-2-(naphthalene-1-sulfonylamino)-propionic acid] had an IC50 of 2.2 nM.

For the molecule `Cc1nc(NC[C@H](NS(=O)(=O)c2ccc(Br)cc2)C(=O)O)c2ccn(CCCC(=O)NC3=NCCCN3)c2n1` [Example 5, (2S)-3-{2-Methyl-7-[3-(1,4,5,6-tetrahydro-pyrimidin-2-ylcarbamoyl)-propyl]-7H-pyrrolo[2,3-d]pyrimidin-4-ylamino}-2-(4-bromobenzenesulfonylamino)-propionic acid], the IC50 under setting [1] stood at 2.6 nM. Turning to `Cc1nc(NC[C@H](NS(=O)(=O)c2ccccc2)C(=O)O)c2ccn(CCCC(=O)NC3=NCCCN3)c2n1` [Example 4, (2S)-3-{2-Methyl-7-[3-(1,4,5,6-tetrahydro-pyrimidin-2-ylcarbamoyl)-propyl]-7H-pyrrolo[2,3-d]pyrimidin-4-ylamino}-2-(benzenesulfonylamino)-propionic acid], the IC50 under setting [1] turned out to be 3 nM. The same measure, in the same setting: under `Cc1nc(NC[C@H](NC(=O)OCc2ccccc2)C(=O)O)c2ccn(CCCC(=O)NC3=NCCCN3)c2n1` [Example 2, (2S)-2-Benzyloxycarbonylamino-3-{2-methyl-7-[3-(1,4,5,6-tetrahydro-pyrimidin-2-ylcarbamoyl)-propyl]-7H-pyrrolo[2,3-d]pyrimidin-4-ylamino}-propionic acid] stands 3.5 nM. On the same count and under the same terms, under `Cc1nc(SC[C@H](NS(=O)(=O)c2ccc(Br)cc2)C(=O)O)c2ccn(CCCC(=O)NC3=NCCCN3)c2n1` [Example 6, (2R)-3-{2-Methyl-7-[3-(1,4,5,6-tetrahydro-pyrimidin-2-ylcarbamoyl)-propyl]-7H-pyrrolo[2,3-d]pyrimidin-4-ylsulfanyl}-2-(4-bromobenzenesulfonylamino)-propionic acid] stands 13.5 nM; under `O=C(CCCn1cnc2c(NC[C@H](NC(=O)OCc3ccccc3)C(=O)O)ncnc21)NC1=NCCCN1` [Example 1, (2S)-2-Benzyloxycarbonylamino-3-{9-[3-(1,4,5,6-tetrahydro-pyrimidin-2-ylcarbamoyl)-propyl]-9H-purin-6-ylamino}-propionic acid], 22 nM.
